“And” between values parts separate entries of the source, which are not always exact repeats. Equal values may be shown once. Read-outs that look alike come from different tables or passages of the source.
How the values were obtained:
[1] = tested on: P. falciparum asexual stages; conditions: asexual stages; TCAMS data; read-out: IC50 asexual; cited from earlier work
HepG2 cells = experiment: Cytotoxicity in HepG2 cells (intracellular ATP, ATPlite, 48 h); assay type: cell-based, human; conditions: HepG2 cells; IC50 per ratio column head; unit inferred
[2] = tested on: P. falciparum stage V gametocytes; experiment: Gametocytocidal ATP bioluminescence assay (single point 5 μM and 1 μM, dose-response); assay type: cell-based, Plasmodium falciparum; conditions: for Ratio IC50 HepG2/IC50 P. falciparum: IC50 HepG2 divided by IC50 P. falciparum gametocytes; for % Inhibition: 5 μM single concentration, 48 h, decrease of ATP level (S1 Table)
Experimental: Purified stage IV-V gametocytes were obtained as previously described [10]. Single point ATP bioluminescence assay and dose–response of positive hits was determined in accordance with the previously published protocol [10].

[3] = P. falciparum gametocytes, average, read-out: IC50 Pf Gametocytes average, IC50 (µM) average
[4] = sexual stages (gametocytes), dose-response, read-out: IC50 sexual

## Cc1ccc(C)c(NC(=O)CC2C(=O)N(c3ccccc3)C(=S)N2Cc2ccco2)c1 (stereo not drawn) [TCMDC-124000]
[1]
  IC50: 570 nM
HepG2 cells
  IC50: > 10000 nM
[2]
  Ratio IC50 HepG2/IC50 P. falciparum: >7.7
[2]; [3]
  IC50: 1.3 µM

## CCCCCCCn1c(=N)n(CC(O)c2ccc(Cl)c(Cl)c2)c2ccccc21 (stereo not drawn) [TCMDC-124065]
[1]
  IC50: 782 nM
HepG2 cells
  IC50: 6000 nM
[2]
  Ratio IC50 HepG2/IC50 P. falciparum: 3
[2]; [3]
  IC50: 2.02 µM

## CCCCOc1ccc(C(=O)C(CCC(CNC(C)(C)C)C(=O)c2ccc(OCCCC)cc2)CNC(C)(C)C)cc1 (stereo not drawn) [TCMDC-124120]
[1]
  IC50: 1020 nM
HepG2 cells
  IC50: 3100 nM
[2]
  Ratio IC50 HepG2/IC50 P. falciparum: 10
[2]; [3]
  IC50: 0.3 µM

## CCCCCOc1ccc(C(O)C(CCC(CN2CCCCCC2)C(O)c2ccc(OCCCCC)cc2)CN2CCCCCC2)cc1 (stereo not drawn) [TCMDC-124174]
[1]
  IC50: 768 nM
HepG2 cells
  IC50: 6800 nM
[2]
  Ratio IC50 HepG2/IC50 P. falciparum: 5.67
[2]; [3]
  IC50: 1.2 µM

## Oc1c(CN2CCC(Cc3ccccc3)CC2)cc(Cl)c2cccnc12 [TCMDC-124594]
[1]
  IC50: 881 nM
HepG2 cells
  IC50: 9600 nM
[2]
  Ratio IC50 HepG2/IC50 P. falciparum: 16
[2]; [3]
  IC50: 0.6 µM

## COc1ccc(C[C@H]2NC[C@H](O)[C@H]2OC(C)=O)cc1 [TCMDC-125504]
[1]
  IC50: 138 nM
HepG2 cells
  IC50: 190 nM
[2]
  Ratio IC50 HepG2/IC50 P. falciparum: 1.1
[2]; [3]
  IC50: 0.17 µM
[2]; [4]
  IC50: 0.173 µM

## COc1ccc(CCNCCCCCCNCCc2ccc(-c3ccccc3)cc2)cc1OC [TCMDC-131267]
[1]
  IC50: 958 nM
HepG2 cells
  IC50: 3250 nM
[2]
  Ratio IC50 HepG2/IC50 P. falciparum: 19
[2]; [3]
  IC50: 0.17 µM
[2]; [4]
  IC50: 0.173 µM

## COc1ccc(CCNCCCCCCNCCc2ccc(Cl)c3ccccc23)cc1OC [TCMDC-131270]
[1]
  IC50: 580 nM
HepG2 cells
  IC50: 3230 nM
[2]
  Ratio IC50 HepG2/IC50 P. falciparum: 25
[2]; [3]
  IC50: 0.13 µM
[2]; [4]
  IC50: 0.127 µM

## COc1ccc(CCNCCCCCCNCCc2ccc(Cl)cc2)c(Cl)c1OC [TCMDC-131272]
[1]
  IC50: 825 nM
HepG2 cells
  IC50: 6200 nM
[2]
  Ratio IC50 HepG2/IC50 P. falciparum: 24
[2]; [3]
  IC50: 0.26 µM
[2]; [4]
  IC50: 0.257 µM

## CCCCc1ccc(CCNCCCCCCNCCc2ccc(O)c(O)c2)cc1 [TCMDC-131281]
[1]
  IC50: 1070 nM
HepG2 cells
  IC50: 8190 nM
[2]
  Ratio IC50 HepG2/IC50 P. falciparum: 15
[2]; [3]
  IC50: 0.54 µM
[2]; [4]
  IC50: 0.545 µM

## COc1cccc(CCNCCCCCCNCCc2ccc(Cl)cc2)c1 [TCMDC-131284]
[1]
  IC50: 1010 nM
HepG2 cells
  IC50: 6100 nM
[2]
  Ratio IC50 HepG2/IC50 P. falciparum: 12
[2]; [3]
  IC50: 0.53 µM

## CCN=C1NC2=C(CC(C(C)(C)C)CC2)C2(CCC(C(C)(C)C)CC2)S1 (stereo not drawn) [TCMDC-131288]
[1]
  IC50: 834 nM
HepG2 cells
  IC50: 14300 nM
[2]
  Ratio IC50 HepG2/IC50 P. falciparum: 5
[2]; [3]
  IC50: 3 µM

## CCC(CSC1CCCCC1)N(C)CCN(C)C(CC)CSC1CCCCC1 (stereo not drawn) [TCMDC-131456]
[1]
  IC50: 314 nM
HepG2 cells
  IC50: 870 nM
[2]
  Ratio IC50 HepG2/IC50 P. falciparum: 0.621
[2]; [3]
  IC50: 1.4 µM

## C[C@H](Cc1ccc(CCc2ccc(C[C@@H](C)NC[C@H](O)c3cccc(Cl)c3)cc2)cc1)NC[C@H](O)c1cccc(Cl)c1 [TCMDC-131551]
[1]
  IC50: 935 nM
HepG2 cells
  IC50: 3100 nM
[2]
  Ratio IC50 HepG2/IC50 P. falciparum: 12
[2]; [3]
  IC50: 0.27 µM
[2]; [4]
  IC50: 0.267 µM

## C[C@H](Cc1ccc(Oc2ccc(C[C@@H](C)NC[C@H](O)c3cccc(Cl)c3)cc2)cc1)NC[C@H](O)c1cccc(Cl)c1 [TCMDC-131560]
[1]
  IC50: 560 nM
HepG2 cells
  IC50: 1910 nM
[2]
  Ratio IC50 HepG2/IC50 P. falciparum: 7
[2]; [3]
  IC50: 0.27 µM

## CCN(CC)/C(=N/C(=N)Nc1ccc(Cl)c(Cl)c1)NCCCCCCN/C(=N\C(=N)Nc1ccc(Cl)c(Cl)c1)N(CC)CC [TCMDC-131808]
[1]
  IC50: 761 nM
HepG2 cells
  IC50: > 25000 nM
[2]
  Ratio IC50 HepG2/IC50 P. falciparum: >7
[2]; [3]
  IC50: 3.44 µM
[2]; [4]
  IC50: 3.44 µM

## CCN(CC)/C(=N/C(=N)NCc1ccc(Cl)cc1Cl)NCCCCCCN/C(=N\C(=N)NCc1ccc(Cl)cc1Cl)N(CC)CC [TCMDC-131819]
[1]
  IC50: 218 nM
[2]; [3]
  IC50: 0.3 µM

## Nc1c2ccccc2nc2ccc(-c3ccccc3)cc12 [TCMDC-132030]
[1]
  IC50: 140 nM
HepG2 cells
  IC50: 3300 nM
[2]
  Ratio IC50 HepG2/IC50 P. falciparum: 7
[2]; [3]
  IC50: 0.49 µM
[2]; [4]
  IC50: 0.485 µM

## CCc1c(CCNCCCCCCNCCc2ccc(Br)cc2)ccc(OC)c1OC [TCMDC-132045]
[1]
  IC50: 232 nM
HepG2 cells
  IC50: 3200 nM
[2]
  Ratio IC50 HepG2/IC50 P. falciparum: 15
[2]; [3]
  IC50: 0.22 µM
[2]; [4]
  IC50: 0.215 µM

## CCc1c(CCNCCCCCCNCCc2ccc(OC)c(OC)c2C)ccc(OC)c1OC [TCMDC-132051]
[1]
  IC50: 1570 nM
HepG2 cells
  IC50: 7750 nM
[2]
  Ratio IC50 HepG2/IC50 P. falciparum: 10
[2]; [3]
  IC50: 0.77 µM

## CCc1c(CCNCCCCCCNC(C)Cc2ccc3c(c2CC)OCO3)ccc(OC)c1OC (stereo not drawn) [TCMDC-132052]
[1]
  IC50: 870 nM
HepG2 cells
  IC50: 3100 nM
[2]
  Ratio IC50 HepG2/IC50 P. falciparum: 10
[2]; [3]
  IC50: 0.33 µM
[2]; [4]
  IC50: 0.325 µM

## CCc1c(CCNCCCCCCNC(C)(C)Cc2ccc3c(c2CC)OCO3)ccc(OC)c1OC [TCMDC-132055]
[1]
  IC50: 934 nM
HepG2 cells
  IC50: 4370 nM
[2]
  Ratio IC50 HepG2/IC50 P. falciparum: 16
[2]; [3]
  IC50: 0.27 µM
[2]; [4]
  IC50: 0.266 µM

## CCc1c(CCNCCc2cccc(CCNCCc3ccc(OC)c(OC)c3CC)c2)ccc(OC)c1OC [TCMDC-132056]
[1]
  IC50: 361 nM
HepG2 cells
  IC50: 4110 nM
[2]
  Ratio IC50 HepG2/IC50 P. falciparum: 7.47
[2]; [3]
  IC50: 0.55 µM

## CCc1c(CCNCCCC(C)CCNCCc2ccc(OC)c(OC)c2CC)ccc(OC)c1OC (stereo not drawn) [TCMDC-132065]
[1]
  IC50: 1110 nM
HepG2 cells
  IC50: 6000 nM
[2]
  Ratio IC50 HepG2/IC50 P. falciparum: 13
[2]; [3]
  IC50: 0.45 µM
[2]; [4]
  IC50: 0.453 µM

## Nc1c(Cl)cc(C(O)CNCCCCCOCCCc2ccc(O)c3ncccc23)cc1Cl.O=C(O)/C=C/C(=O)O (stereo not drawn) [TCMDC-132088]
[1]
  IC50: 992 nM
HepG2 cells
  IC50: 4510 nM
[2]
  Ratio IC50 HepG2/IC50 P. falciparum: 10
[2]; [3]
  IC50: 0.45 µM
[2]; [4]
  IC50: 0.455 µM

## COc1cccc(CCc2c(CCNCCCCCCNCCc3ccccc3)ccc(OC)c2OC)c1 [TCMDC-132105]
[1]
  IC50: 721 nM
HepG2 cells
  IC50: 7700 nM
[2]
  Ratio IC50 HepG2/IC50 P. falciparum: 44
[2]; [3]
  IC50: 0.18 µM
[2]; [4]
  IC50: 0.177 µM

## O=S(=O)(NCCN1CCCC1)c1cccc(-c2ccc(CNC3Cc4ccccc4C3)cc2)c1 [TCMDC-132241]
[1]
  IC50: 660 nM
HepG2 cells
  IC50: 8000 nM
[2]
  Ratio IC50 HepG2/IC50 P. falciparum: 3.72
[2]; [3]
  IC50: 2.15 µM

## O=S(=O)(NCCN1CCCC1)c1cccc(-c2ccc(CNCc3ccc(F)cc3)cc2)c1 [TCMDC-132289]
[1]
  IC50: 234 nM
HepG2 cells
  IC50: 7400 nM
[2]
  Ratio IC50 HepG2/IC50 P. falciparum: 2.75
[2]; [3]
  IC50: 2.69 µM

## CN1CCN(c2nsc3ccc(-c4ccc(NC(=O)Nc5cc(C(F)(F)F)ccc5F)cc4)cc23)CC1 [TCMDC-133435]
[1]
  IC50: 245 nM
HepG2 cells
  IC50: 6400 nM
[2]
  Ratio IC50 HepG2/IC50 P. falciparum: 0.851
[2]; [3]
  IC50: 7.52 µM

## O=C(Nc1ccc(Cl)c(Cl)c1)Nc1ccccc1N1CCNCC1 [TCMDC-133727]
[1]
  IC50: 709 nM
HepG2 cells
  IC50: 11200 nM
[2]
  Ratio IC50 HepG2/IC50 P. falciparum: 1.51
[2]; [3]
  IC50: 7.42 µM

## CN1CCCc2cc(NC(=O)C=Cc3ccc(-c4ccc(F)cc4F)o3)ccc2C1 [TCMDC-134051]
[1]
  IC50: 783 nM
HepG2 cells
  IC50: 13400 nM
[2]
  Ratio IC50 HepG2/IC50 P. falciparum: <1
[2]; [3]
  IC50: > 10 µM

## CCCCOc1ccc(CNCCCCCCNCc2ccc(OCCCC)c3ccccc23)c2ccccc12 [TCMDC-137281]
[1]
  IC50: 1130 nM
HepG2 cells
  IC50: 3040 nM and 2800 nM

## CCCCCOc1ccc(C(=NC)N(CCCCC)CCCCC)c2ccccc12 [TCMDC-137703]
HepG2 cells
  IC50: 6300 nM
[2]
  Ratio IC50 HepG2/IC50 P. falciparum: 7
[2]; [3]
  IC50: 0.89 µM
[2]; [4]
  IC50: 0.885 µM

## C=CC(C)C1OC(=O)c2cc(OC)cc(OC)c21 (stereo not drawn) [TCMDC-138676]
HepG2 cells
  IC50: 800 nM
[2]
  Ratio IC50 HepG2/IC50 P. falciparum: 2
[2]; [3]
  IC50: 0.4 µM

## CC(C)NC(C)(C)CN(Cc1ccc(-c2ccc(C(F)(F)F)cc2)cc1)C(=O)Cn1c(CCc2cccc(F)c2F)nc(=O)c2ccccc21 [TCMDC-141084]
[2]; P. falciparum gametocytes
  % Inhibition: 72%

## CCCCCCNC(=O)C1Cc2c([nH]c3ccccc23)C2(CCN(CCc3ccccc3)CC2)N1 (stereo not drawn) [TCMDC-141085]
[2]; P. falciparum gametocytes
  % Inhibition: -58%

From article PMC4552634, “A New Set of Chemical Starting Points with Plasmodium falciparum Transmission-Blocking Potential for Antimalarial Drug Discovery” (PLoS ONE, 2015)
